Test results from patent US20080260716A1, “Method and Composition for High Level Disinfection Employing Quaternary Ammonium Compounds” (priority 2004, published 2008).
Like-named read-outs stand apart in the source and are kept apart here.

What was measured:
[1] = system: Mycobacterium terrae; assay: AOAC tuberculocidal test, kill time; format: cell-based
Description: These standards are based on the known or possible risk of contamination of a particular medical device by a particular micro-organism, the pathogenic nature of the organism and other principles in infection control. […] The test panels and criteria are different for “low”, “intermediate” or “high-level disinfection”. These terms are herein used in accordance with current Food and Drug Administration (“FDA”) criteria for levels of disinfection which are detailed in Premarket Notification [510(k)] Submissions for Liquid Chemical Sterilants and High Level Disinfectants FDA 1997: “A germicide that inactivates all microbial pathogens except large number of bacterial endospores when used according to labelling”. In brief, the FDA regulatory requirement for high level disinfectants includes as the most challenging test a 100% kill of Mycobacterium tuberculosis var. bovis (or a specific strain of a suitable surrogate, such as Mycobacterium terrae) in 400 p.p.m. hard water in the presence of 2% horse serum in a quantitative tuberculocidal test.
In the following tables unless otherwise specified references to “kill time” mean the time required to achieve complete kill as defined in the relevant AOAC test (more particularly identified in annexure 1). “No kill” means less than 2 log reduction from the initial population. Unless otherwise specified “QUAT” is benzalkonium chloride, specifically Gardiquat NC-50 (Albright & Wilson). Test points for vegetative bacteria (M. terrae) were 2, 5, 10, 20 and 60 mins. Test points for spores were 0.5, 1, 2, 4, 16, 24, 48 hours. The last column in each table indicates whether the tested combination satisfies the FDA requirement for high level disinfection (“HLD”) or fails to do so (“F”).
AOAC tests for determination of High level Disinfection as defined in current FDA criteria (detailed in “Premarket Notification [510(k)] Submissions for Liquid Chemical Sterilants and High Level Disinfectants FDA 1993”.):
AOAC Tuberculocidal Activity of Disinfectants
AOAC Ref No 965.12, AOAC Official Methods of Analysis (1995)

[2] = system: Mycobacterium terrae, B. subtilis, C. sporogens; set-up: key: satisfies the FDA requirement for high level disinfection (“HLD”); fails to do so (“F”)
[3] = Table 3 Prior art, 0.25% QUAT, 25° C.
[4] = Table 6 unnumbered test, 2% QUAT + 0.2% Protease (Savinase 16 L), 25° C. + 1% borax
[5] = test 3.4, 0.25% QUAT, 62° C. + ultrasound
[6] = test 4.1, 2% QUAT, 25° C. + 1% borax
[7] = test 4.2, 5% QUAT, 25° C. + 1% borax
[8] = test 4.3, 1% QUAT, 40° C. + 1% borax
[9] = test 4.4, 2% QUAT, 40° C. + 1% borax
[10] = test 4.5, 5% QUAT, 40° C. + 1% borax
[11] = test 4.6, 2% QUAT, 50° C. + 1% borax
[12] = test 4.7, 5% QUAT, 50° C. + 1% borax
[13] = test 5.2, 2% QUAT, 40° C. + ultrasound 10 min each hour
[14] = test 5.3, 5% QUAT, 40° C. + ultrasound 10 min each hour
[15] = test 5.4, 1% QUAT, 40° C. + ultrasound 10 min each hour
[16] = test 5.5, 2% QUAT + 1% borax, 40° C. + ultrasound 10 min each hour
[17] = test 5.6, 5% QUAT + 1% borax, 40° C. + ultrasound 10 min each hour
[18] = test 5.7, 2% QUAT + 1% borax + Protease, 40° C. + ultrasound 10 min each hour
[19] = test 6.1, 2% QUAT + 0.2% Protease (Savinase 16 L), 25° C.
[20] = test 6.2, 2% QUAT + 0.2% Protease (Savinase 16 L), 40° C.
[21] = test 6.3, 2% QUAT + 0.2% Protease (Savinase 16 L), 40° C. + 1% borax
[22] = test 6.4, 2% QUAT + 0.2% Protease (Savinase 16 L), 50° C.
[23] = test 6.5, 2% QUAT + 0.2% Protease (Savinase 16 L), 50° C. + 1% borax
[24] = test 6.6, 2% QUAT + 0.2% Protease (Savinase 16 L), 40° C. + ultrasound 10 min each hour + 1% borax
[25] = test 6.7, 2% QUAT + 1% borax + Protease, 40° C. + ultrasound 10 min each hour

benzalkonium chloride [QUAT]
Kill Time M. terrae [1, 3]: >60 min | Kill Time M. terrae [1, 4]: >60 min | kill time of Mycobacterium terrae ([1]; above 1% w/w of quat, 40° C.): less than 5 mins | Kill Time Mycobacterium terrae ([1]; test 1.1, 0.025% QUAT, 25° C.): >60 min | Kill Time Mycobacterium terrae ([1]; test 1.2, 0.25% QUAT, 25° C.): >60 min | Kill Time Mycobacterium terrae ([1]; test 2.1, 5% QUAT, 30° C.): <5 min | Kill Time Mycobacterium terrae ([1]; test 2.2, 1.0% QUAT, 40° C.): <5 min | Kill Time Mycobacterium terrae ([1]; test 2.3, 2.0% QUAT, 40° C.): <5 min | Kill Time Mycobacterium terrae ([1]; test 2.4, 5.0% QUAT, 40° C.): <5 min | Kill Time Mycobacterium terrae ([1]; test 2.5, 1.0% QUAT, 50° C.): <5 min | Kill Time Mycobacterium terrae ([1]; test 2.6, 2.0% QUAT, 50° C.): <5 min | Kill Time Mycobacterium terrae ([1]; test 2.7, 5.0% QUAT, 50° C.): <5 min | Kill Time Mycobacterium terrae ([1]; test 2.8, 1.0% QUAT, 80° C.): <5 min | Kill Time M. terrae ([1]; test 3.1, 0.25% QUAT, 40° C.): >60 min | Kill Time M. terrae ([1]; test 3.2, 0.25% QUAT, 50° C.): >60 min | Kill Time M. terrae ([1]; test 3.3, 0.25% QUAT, 60° C.): >60 min | Kill Time M. terrae [1, 5]: >60 min | Kill Time M. terrae ([1]; test 3.5, 1.0% QUAT, 25° C.): >60 min | Kill Time M. terrae ([1]; test 3.6, 2.0% QUAT, 25° C.): >60 min | Kill Time M. terrae ([1]; test 3.7, 5.0% QUAT, 25° C.): >60 min | Kill Time M. terrae ([1]; test 3.8, 0.6%, 40° C.): >60 min | Kill Time M. terrae ([1]; test 3.9, 0.6% QUAT, 50° C.): >20 min | Kill Time M. terrae [1, 6]: >60 min | Kill Time M. terrae [1, 7]: >60 min | Kill Time M. terrae [1, 8]: <5 min | Kill Time M. terrae [1, 9]: <2 min | Kill Time M. terrae [1, 10]: <2 min | Kill Time M. terrae [1, 11]: <2 min | Kill Time M. terrae [1, 12]: <2 min | Kill Time M. terrae ([1]; test 5.1, 1% QUAT, 40° C. + ultrasound 10 min each hour): <5 min | Kill Time M. terrae [1, 13]: <5 min | Kill Time M. terrae [1, 14]: <5 min | Kill Time M. terrae [1, 15]: <5 min | Kill Time M. terrae [1, 16]: <2 min | Kill Time M. terrae [1, 17]: <2 min | Kill Time M. terrae [1, 18]: <2 min | Kill Time M. terrae [1, 19]: >60 min | Kill Time M. terrae [1, 20]: <5 min | Kill Time M. terrae [1, 21]: <2 min | Kill Time M. terrae [1, 22]: <5 min | Kill Time M. terrae [1, 23]: <2 min | Kill Time M. terrae [1, 24]: <2 min | Kill Time M. terrae [1, 25]: <2 min | HLD Or F [2, 3]: F | HLD Or F [2, 4]: F | HLD or F ([2]; test 1.1, 0.025% QUAT, 25° C.): F | HLD or F ([2]; test 1.2, 0.25% QUAT, 25° C.): F | HLD or F ([2]; test 2.1, 5% QUAT, 30° C.): HLD | HLD or F ([2]; test 2.2, 1.0% QUAT, 40° C.): HLD | HLD or F ([2]; test 2.3, 2.0% QUAT, 40° C.): HLD | HLD or F ([2]; test 2.4, 5.0% QUAT, 40° C.): HLD | HLD or F ([2]; test 2.5, 1.0% QUAT, 50° C.): HLD | HLD or F ([2]; test 2.6, 2.0% QUAT, 50° C.): HLD | HLD or F ([2]; test 2.7, 5.0% QUAT, 50° C.): HLD | HLD or F ([2]; test 2.8, 1.0% QUAT, 80° C.): HLD | HLD Or F ([2]; test 3.1, 0.25% QUAT, 40° C.): F | HLD Or F ([2]; test 3.2, 0.25% QUAT, 50° C.): F | HLD Or F ([2]; test 3.3, 0.25% QUAT, 60° C.): F | HLD Or F [2, 5]: F | HLD Or F ([2]; test 3.5, 1.0% QUAT, 25° C.): F | HLD Or F ([2]; test 3.6, 2.0% QUAT, 25° C.): F | HLD Or F ([2]; test 3.7, 5.0% QUAT, 25° C.): F | HLD Or F ([2]; test 3.8, 0.6%, 40° C.): F | HLD Or F ([2]; test 3.9, 0.6% QUAT, 50° C.): F | HLD or F [2, 6]: F | HLD or F [2, 7]: F | HLD or F [2, 8]: HLD | HLD or F [2, 9]: HLD | HLD or F [2, 10]: HLD | HLD or F [2, 11]: HLD | HLD or F [2, 12]: HLD | HLD Or F [2, 13]: HLD | HLD Or F [2, 14]: HLD | HLD Or F [2, 15]: HLD | HLD Or F [2, 16]: HLD | HLD Or F [2, 17]: HLD | HLD Or F [2, 18]: HLD | HLD Or F [2, 19]: F | HLD Or F [2, 20]: HLD | HLD Or F [2, 21]: HLD | HLD Or F [2, 22]: HLD | HLD Or F [2, 23]: HLD | HLD Or F [2, 24]: HLD | HLD Or F [2, 25]: HLD
